Assays:
[1] = tested on: neuro-2a neuroblastoma cells; assay: Neurite outgrowth / differentiation, scanning electron microscopy; type: cell-based, mouse; conditions: for neurite outgrowth: 48 hours
Protocol: Neuroblastoma cells were cultured in the presence of 2-n-butyl-4-pentynoic acid (1.0 mM, 2 mM); and 2-n-pentyl-pentynoic acid (0.3 mM, 0.5 mM). Test medium was added to cells after 24 hours in culture and maintained as a test medium for 48 hours after which they were fixed in 2.5% glutaraldehyde and […] sodium phosphate buffer overnight at 4° C. Cells were postfixed with osmium tetroxide and prepared for scanning microscopy as described.
The neurotrophic activity associated with valproate and its analogues may be determined based on in vitro indices of differentiation, including inhibition of mitosis, increase in neurite outgrowth, and NCAM expression. For example, the ability to promote neurite outgrowth is correlated with enhanced survival of certain cultured neural cells including embryonic sensory and sympathetic neurons. Proliferating immature neuroblasts, in vitro, have a rounded shape and are loosely adherent to culture surfaces. In the presence of a neurotrophic factor, these cells become more adherent and sprout processes known in the art as neurites. Accordingly, in vitro neurite outgrowth may be used as an assay for determining concentrations of compound in contact with target cells which would be expected to achieve desirable neuroprotecting effects.
Cells which were to be examined by scanning electron microscopy were grown as previously described in 25cm^2 flasks. Following 48 h exposure to the agent, cells were fixed in a solution of 2.5% glutaraldehyde in 0.1M sodium phosphate buffer, pH 7.4, overnight at 4° C. The cells were post-fixed subsequently in phosphate-buffered 1% osmium tetroxide for 1 h at room temperature, washed and were dehydrated gradually for 1 hour using a series of ethanol concentrations stepwise from 20, 40, 60, 80 to a final concentration 100%.
Sections of the base of the tissue culture flask were removed and were critical point dried to minimize shrinkage and cracking. This was achieved by placing the samples in a Polaron critical point dryer and purging the chamber several times with CO2 to remove all traces of ethanol. After 1 h the temperature and pressure were increased to 40° C. and 1200 lbs/in^2, respectively, at which stage the critical point for carbon dioxide had been reached and drying was completed.
Specimens were subsequently removed from the chamber, mounted on stubs suitable for scanning electron microscopy using conductive carbon cement (Neubauer) and were sputter coated with gold under vacuum (5×10^−2 torr) in the presence of argon gas at a current of 20 mA for 3 minutes (Polaron E5100). Following gold-coating, samples were examined in the scanning electron microscope (JEOL 35C) at an accelerating voltage of 15 kV.

[2] = tested on: mouse neuro-2a neuroblastoma cells; assay: Antiproliferative assay, cell counting after 48 h; type: cell-based
Protocol: Neuro-2a neuroblastoma cells were cultured in 25 cm^2 flasks for 48 hours in the presence of test medium. After 48 hours, cells were observed, photographed and harvested with trypsin for counting using a haemocytometer. Cell number is expressed as percentage mean±SEM (n=3) of control values.
Accordingly, representative cells may be cultured in vitro in the presence of varying concentration of test compound. At an appropriate time, the cells under the different conditions are examined for the appropriate parameter (for example, cell number for antimitotic activity; neurite outgrowth for neurotrophic activity) and the ED50 may be determined.
Antiproliferative and neuroprotective actions should be sufficient to achieve the desired inhibition of mitosis or neuroprotection without serious hetaptotoxic side effects. […] Dose response curves may be determined first in vitro in a relevant animal model to determine ranges of expected therapeutic concentrations in humans. […] Other cell lines, including those of human origin may be used to assesses activity as well.
The mouse neuro-2a neuroblastoma cell line (Klebe and Ruddle, 1969 J. Cell Biol., 43:69A) was cultured in Dulbecco's modified Eagle's medium (DMEM; Flow Laboratories) supplemented with 10% fetal bovine serum (Tissue Culture Services), […] glutamine and 100 μg/ml of gentamicin or 100 units/ml and 100 μg/ml of penicillin/streptomycin antibiotics (Sigma Chemicals). The cells were maintained in a water-humidified atmosphere of 9% CO2at 37° C. Cells were passaged using 0.025% trypsin (Gibco) in DMEM, and were seeded at a density of 1×10^4 cells/cm^2.
Neuro-2a cells were seeded in 25cm^2 flasks (Costar) at a density of 1×10^4 cells/cm^2. Following a recovery period of 24 h, the agent to be examined was added to the cells in a vehicle of dimethyl sulphoxide (DMSO), the volume of which was 0.2% of the total volume of medium bathing the cells. A flask containing the DMSO vehicle alone was employed as control. Following incubation for 48h, cells were examined using an inverted phase contrast microscope (Leitz Diavert) and photographed (Ilford 50ASA film). Cells were then harvested by trypsinization and were counted using a haemocytometer (improved Neubauer model).

Teratogenic activity = conditions: in vivo
Source text: Nau, H. et al., Pharmacol. & Toxicol. (1991) 69:310-321.

[3] = tested on: Neural Cell Adhesion Molecule (NCAM) in neuro-2a neuroblastoma cells; assay: NCAM immunofluorescence microscopy; type: cell-based, mouse; conditions: 1.0 mm; compared to control cells
Protocol: FIGS. 3A-1, 3A-2 and 3B: Neural Cell Adhesion Molecule (NCAM) immunofluorescence in neuro-2a neuroblastoma cells. […] Panel B. Neuroblastoma cells were cultured for 48 hours in the presence of increasing concentrations of 2-n-butyl-4-pentynoic acid and 2-n-pentyl-4-pentynoic acid. They were then fixed and prepared for staining with rabbit anti-NCAM antibody. A second anti-rabbit antibody conjugated to rhodamine was incubated with the cells to detect bound anti-NCAM antibody. […] Immunofluorescence is expressed as mean +/− SEM.
Cells were seeded in 24-well plates at a density of 1×10^4 cells/cm^2. Following a recovery period 24 h they were exposed for an additional 48 h to the drug under investigation. […] The cells were again washed three times with phosphate buffered saline pH 7.4 and were then mounted using Citifluor (Agar Scientific) containing a fluorescence enhancer. Fluorescence of rhodamine was visualized using an excitatory wavelength of 535 nm (Leica filter block N2.1) on a Leitz DMRB fluorescence microscope. Fluorescence intensity was examined at points of cell-cell contact using a Quantimet 500 Image Analysis System. Fluorescence intensity is expressed as grey level at points of cell contact relative to that observed in the control.

[4] = literature; cited from earlier work
[5] = experimental models; literature; cited from earlier work
[6] = human; literature; cited from earlier work
[7] = tested on: neural derived cell proliferation; conditions: literature; cited from earlier work

Q: Which prodifferentiative potency [1] does the source give for `C#CCC(CC(C)C)C(=O)O` (stereo not drawn) here?
A: Its prodifferentiative potency is “low”.

Q: What about the “antiproliferative potency / activity” value [2] of the same molecule?
A: Its value is “low”.

Q: What about the teratogenic potency (Teratogenic activity) of the same molecule?
A: Its teratogenic potency is “low”.

Q: With `C#CCC(CCCCCC)C(=O)O` (racemic) [2-n-hexyl-4-pentynoic acid, (±)-2-(2-propinyl)-Octanoic acid] as the molecule, how does the teratogenic potency (Teratogenic activity) read?
A: The teratogenic potency was “most potent”.

Q: Which results are given for `C#CCC(CCCC)C(=O)O` (stereo not drawn) [2-n-butyl-4-pentynoic acid]?
A: neurite outgrowth ([1]; 1.0 mM, 2 mM): Induction of neurite outgrowth; teratogenic potency (Teratogenic activity): most potent

Q: What does the source list for `C#CCC(CCCCC)C(=O)O` (stereo not drawn) [2-n-pentyl-4-pentynoic acid]?
A: neurite outgrowth ([1]; 0.3 mM, 0.5 mM): Induction of neurite outgrowth; immunofluorescence directed against NCAM [3]: increased immunofluorescence; teratogenic potency (Teratogenic activity): most potent

Q: For `C#CCC(CCC)C(=O)O` (stereo not drawn) [2-n-propyl-4-pentynoic acid], which “teratogenic potency of S-enantiomer relative to R-enantiomer” value [4] is on record?
A: Its value is “more potent”.

Q: What about the teratogenic potency (Teratogenic activity) of the same molecule?
A: Its teratogenic potency is “most potent”.

Q: With `C=CCC(CCC)C(=O)O` (stereo not drawn) [Example 4-en-VPA, 2-n-propyl-4-pentenoic acid] as the molecule, how does the “teratogenic potency of S-enantiomer relative to R-enantiomer” value [4] read?
A: Its value is “more potent”.

Q: With `CC/C=C(\CCC)C(=O)O` [IV] as the molecule, how does the cellular neurotrophic activity [1] read?
A: The cellular neurotrophic activity was “lowers, but does not abolish”.

Q: What about the teratogenic activities [4] of the same molecule?
A: Its teratogenic activities is “very low or undetectable”.

Q: And the anticonvulsant properties [5]?
A: The anticonvulsant properties was “good”.

Q: And the “antiproliferative potency / activity” value [2]?
A: Its value is “lowers, but does not abolish”.

Q: With `C#CC[C@H](CCC)C(=O)O` [S-2-n-propyl-4-pentynoic acid] as the molecule, how does the “teratogenic potency of S-enantiomer relative to R-enantiomer” value [4] read?
A: The value was “significantly greater”.

Q: For `CC#CCC(CCC)C(=O)O` (stereo not drawn) [VI], which cellular neurotrophic activity [1] is on record?
A: The cellular neurotrophic activity was “lowers, but does not abolish”.

Q: And the teratogenic activities [4]?
A: Its teratogenic activities is “very low or undetectable”.

Q: And the anticonvulsant properties [5]?
A: Its anticonvulsant properties is “good”.

Q: And the “antiproliferative potency / activity” value [2]?
A: Its value is “lowers, but does not abolish”.

Q: With `C/C=C\CC(CCC)C(=O)O` (stereo not drawn) [V] as the molecule, how does the cellular neurotrophic activity [1] read?
A: The cellular neurotrophic activity was “lowers, but does not abolish”.

Q: And the “antiproliferative potency / activity” value [2]?
A: The value was “lowers, but does not abolish”.

Q: Which “transfer into the central nervous system” value [6] does the source give for `CCCC(CCC)C(=O)O` [valproate, valproic acid] here?
A: The value was “very limited”.

Q: And the antiproliferative action [7]?
A: Its antiproliferative action is “potently inhibit”.

Q: Which teratogenic activities [4] does the source give for `CCCC(CCC)C(N)=O` [valpromide] here?
A: Its teratogenic activities is “non-teratogenic”.

Q: And the antiproliferative action [7]?
A: The antiproliferative action was “not antiproliferative”.
